Reference: patent US9072775B2, “Fluorescent emulsions for optical imaging” (priority 2007, dated 2015)

Tests used:
[1] = Fluorescence lifetime from time-resolved fluorescence decay; format: physicochemical; settings: pulsed excitation 740 nm
Protocol: The fluorescence decays of the fluorophore free in solution in methanol or encapsulated in the lipid nanoparticles of oil-in-water emulsion type, in suspension in PBS (10 mM, pH 7.3), were measured on a measuring system using a neodymium-vanadate, continuous-wave laser [Millennia Pro, Spectra-Physics, USA], (532 nm, 5 W)-pumped sapphire-titanium laser [Tsunami, Spectra-Physics, USA] (80 MHz, 100 femtoseconds), tunable to a wavelength of 700 nm to 1000 nm. Depending on the operating mode of this device, the laser is injected into a multimode optical fiber, used as excitatory fiber for the sample to be studied. A second (detection) optical fiber collects the fluorescence emitted or the laser scattering via a filtering system. The signal is measured by means of a photomultiplier tube [Hamamatsu, Japan] coupled to a TCSPC counting board [Becker&Hickel, Germany]. The latter is controlled by means of a sampled part (4%) of the laser signal (pulse train) via a rapid photodiode (PD) [Becker&Hickel, Germany] before injection into the optical fiber.
The measurements were carried out using a pulsed excitation wavelength of 740 nm. The fluorescence intensity (in arbitrary units) was measured in order to plot curves reflecting the fluorescence decay (fluorescence intensity (arbitrary units) expressed as a function of time (in ps)); curves not represented. […]

[2] = in ethanol; cited from earlier work
[3] = Quantum yield of fluorescence relative to a reference standard; format: physicochemical; settings: In solution in MeOH; reference Nile Blue perchlorate in ethanol
Protocol: The quantum yield of fluorescence (Φ) is expressed by the following equation: (Φ)=(number of photons emitted)/(number of photons absorbed).
(§1) It is common practice to determine a quantum yield relative to that of a reference standard, by the techniques known to those skilled in the art. The quantum yield of this formulation was calculated by comparison with a reference standard sample (Nile Blue perchlorate in ethanol, sold by Invitrogen) having a known quantum yield value equal to 0.27. The same measurements (carried out using a Varian spectrophotometer, model Cary 300 and a Perkin Elmer spectrofluorimeter, model LS 50) and calculations were carried out for a solution of DiD fluorophore in methanol (MeOH).

[4] = Absorption and emission spectra; format: physicochemical; settings: In solution in MeOH
Protocol: as §1

## CCCCCCCCCCCCCCCCCCN1/C(=C/C=C/C=C/C=C/C2=[N+](CCCCCCCCCCCCCCCCCC)c3ccccc3C2(C)C)C(C)(C)c2ccccc21.[I-] [DiR, 1,1′-dioctadecyl-3,3,3′,3′-tetramethylindotricarbocyanin iodide]
[1]
  Lifetime of the DiR fluorophore in solution in methanol: 800 ps

## CC[N+](CC)=c1ccc2nc3c(cc(N)c4ccccc43)oc-2c1.[O-][Cl+3]([O-])([O-])[O-] [Nile Blue perchlorate]
[2]
  known quantum yield value of reference standard: 0.27

## CCCCCCCCCCCCCCCCCCN1C(=CC=CC=CC2=[N+](CCCCCCCCCCCCCCCCCC)c3ccccc3C2(C)C)C(C)(C)c2ccccc21.[O-][Cl+3]([O-])([O-])[O-] [DiD, 1,1′-dioctadecyl-3,3,3′,3′-tetramethylindodicarbocyanin perchlorate]
[3]
  Quantum yield: 0.29
[4]
  Emission: 665 nm
  Max. absorption: 644 nm
